The results in this text go back to patent publication US20070160684A1, “Methods for increasing cancer cell chemosensitivity” (priority 2005, published 2007).

The subject of one test is Pa-4 cells. Put plainly: FACS cell cycle analysis (G2/M, sub-G1). In kind it is cell-based. On the procedure:
(§1) Pa-4 and Pa-4/HMGA2 cells were seeded at 50-80% confluency in 35 mm dishes and serum starved overnight to synchronize cell cycle. Synchronized cells were treated with 1 μM Dox or vehicle for 24 hours, then fixed in 70% ethanol overnight and stained with 20 μg/ml propidium iodide. The percentage of cells in G1 versus G2/M was then determined by FACS analysis at the Norris Cancer Center Flow Cytometry Core Facility using FACSCaliber (Becton Dickinson, Franklin Lakes, N.J.).
(§2) Apoptosis of Pa-4 and Pa-4/HMGA2 cells was quantified by assessing the sub-G, cell population, a hallmark of cell apoptosis. The percentage of […] Pa-4/HMGA2 cells was increased five-fold 24 hours after Dox treatment, versus an increase of only two-fold in Pa-4 cells (FIG. 3A, panel e).

A further test deals with Pa-4/HMGA2 cells. Put plainly: FACS cell cycle analysis (G2/M, sub-G1). In kind it is cell-based. On the procedure:
as §1, §2

The subject of test [1] is H2AX phosphorylation. Put plainly: Western analysis of H2AX phosphorylation in U2OS.GK41 cells. The class given is cell-based. As to conditions: 2 μM Dox, 1 hour and 2 hours, cells expressing ATR-kd. The method, then: For experiments using U2OS.GK41 cells, cells were pre-treated with 1 μg/ml doxycycline for 48 […] to induce expression of ATR-kd. Non-induced control cells were pre-treated with vehicle only. Induced and non-induced cells were then treated with 2 μM Dox. At 1 hour and 2 hours after Dox treatment, cell lysates were removed and subjected to Western analyses using anti-phospho-H2AX or anti-actin antibodies.

The test system of test [2] is ATM Ser1981 phosphorylation. In words: Western analysis of ATM phosphorylation in pEBS7 and YZ5 cells. As to conditions: 2 μM Dox. The class given is cell-based. On the procedure:
ATM-deficient pEBS7 cells and ATM-proficient YZ5 cells were maintained in DMEM and 10% FBS with 100 μg/ml hygromycin at 37° C. with 5% CO2. pEBS7 and YZ5 are stable clones derived from ATM-deficient fibroblasts (AT22IJE-T) with empty vector and Flag-tagged wild-type ATM, respectively (Li 2000). Cells were treated with 2 μM Dox or vehicle only. At various time points after treatment, equal amounts of protein lysates were removed and subjected to Western analyses using monoclonal anti-phospho-ATM antibodies (Ser1981) (Upstate Cell Signaling, Waltham, Mass.).

For test [3], the system named is H2AX phosphorylation. In words: Western analysis of H2AX phosphorylation in HS578T and HCC1419 cells. In kind it is cell-based. As to conditions: 2 μM Dox. The method, then: NU7026 (Calbiochem, San Diego, Calif.) was dissolved in DMSO at 5 mM and stored at −20° C. […] Cell lysates were removed and subjected to Western analyses using monoclonal anti-phospho-H2AX (Ser 139) antibodies. Control Western analyses were performed using monoclonal anti-actin antibodies.
Experiments were repeated using HS578T and HCC1419 cells treated with 2 μM rather than 1 μM Dox.

Test [4] relates to DNA-PKcs pT2609 and pS2056. In words: Western analysis of DNA-PKcs phosphorylation. In kind it is cell-based. The method, then: Dox treatment has been reported to lead to rapid and transient phosphorylation of DNA-PKcs at Thr-2609 (pT2609) and Ser-2056 (pS2056), respectively (Chen 2005). Equal amounts of protein lysates from HeLa and HeLa/HMGA2 cells were treated with 2 μM or 5 μM Dox, then subjected to Western analyses using polyclonal anti-phospho-DNA-PKcs-T2609/S2056 (Dr. David Chen, Univ. of Texas Southwestern Medical Center) and monoclonal anti-DNA-PKcs antibodies (Santa Cruz, Calif.). Control lysates were treated with vehicle only. Untreated and Dox-treated MO59K (DNA-PKcs proficient) and MO59J (DNA-PKcs deficient) cells were used as an additional control to assure antibody specificity.
To confirm that HMGA2 expression is at least in part responsible for sustained DNA-PKcs pT2609 and pS2056 signals following Dox exposure, siRNA was utilized to downregulate endogenous HMGA2 expression in Hs578T cells. siRNA against HMGA2 (si-HMGA2) was described previously (Boo 2005). The sense and antisense were annealed to a working concentration of 20 μM by incubation with annealing buffer (5×: 30 mM HEPES pH 7.4, 100 mM potassium acetate, 2 mM magnesium acetate) at 90° C. for one minute followed by incubation at 37° C. for one hour. The annealed siRNA was stored at −20° C. Transfection of siRNA was performed with GeneEraser (Stratagene, Calif.) according to manufacturer's instruction. Briefly, cells were seeded to a confluency of 50% on the day of transfection. GeneEraser was pre-incubated at room temperature in serum-free medium ten minutes before the addition of siRNA. The GeneEraser/si-HMGA2 solution was then incubated at room temperature for an additional 15 minutes before addition to cells in a serum-containing medium. The cells were allowed to incubate for various time periods without any medium change post-transfection. Control cells were transfected with a scrambled siRNA. Cells were treated with Dox 48 hours after transfection.

The subject of test [5] is Pa-4 and Pa-4/HMGA2 cells. In words: MTT cell viability assay. As to conditions: Dox 0-7 μM or irinotecan 0-50 μM. In kind it is cell-based. Background: Formazan colour is commonly taken as a measure of viable cells.
In test [6] the test system is PUMA and NOXA transcriptional activation. Put plainly: Quantitative real-time RT-PCR of PUMA and NOXA. In kind it is cell-based. As to conditions: 2 μM Dox.
Test [7] has as its system HS578T, HCC1419, and CHO cells. Put plainly: MTT cell viability assay. As to conditions: Dox 0 to 2.5 μM.
The mark [8] stands for this setting: 1 μM Dox for 24 hours, synchronized cells.

Consider `COc1cccc2c1C(=O)c1c(O)c3c(c(O)c1C2=O)C[C@@](O)(C(=O)CO)C[C@@H]3O[C@H]1C[C@H](N)[C@H](O)[C@H](C)O1` [Dox, doxorubicin], for which the “percentage of cells in G2/M phase” value in the test on Pa-4 cells (setting [8]) is 50.9%; with Pa-4/HMGA2 cells (setting [8]) it was 62.6%. Also, the “increase in apoptosis (sub-G1 cell population)” value in the test with Pa-4 cells (24 hours after Dox treatment) is recorded as “two-fold”; in the test on Pa-4/HMGA2 cells (24 hours after Dox treatment) it was “five-fold”. In addition, the “induction of H2AX phosphorylation” value in the test with H2AX phosphorylation [1] was “delay in Dox-mediated induction of H2AX phosphorylation”. In test [2], the “ATM Ser1981 phosphorylation” value is “detected between 0.5 and 2 hours after Dox treatment”. Also, the results for the H2AX phosphorylation entry in the test with H2AX phosphorylation [3] (HCC1419 cells) and in the test with H2AX phosphorylation [3] (HS578T cells) were “induced H2AX phosphorylation” and “no increase in H2AX phosphorylation following Dox treatment”, respectively. In addition, in [4] (2 μM or 5 μM Dox, two hours, HeLa/HMGA2 cells), the DNA-PKcs phosphorylation signals result is “Accumulation of DNA-PKcs phosphorylation signals”. For the same compound, the “DNA-PKcs phosphorylation signals, Hs578T versus HCC1419” value in [4] (increasing concentrations of Dox) was “recapitulated in HMGA2-expressing Hs578T breast cancer cells, but not in HMGA2-underexpressing HCC1419 breast cancer cells”. In addition, in test [5] (72 hours), the “difference in decrease of viability between Pa-4/HMGA2 and Pa-4 cells” value is listed as “much larger in Pa-4/HMGA2 cells than it was in Pa-4 cells”. In addition, the “cell viability / growth inhibition” value in test [5] (72 hours after treatment) was “decreased cell viability in a dose-dependent manner in both Pa-4 and Pa-4/HMGA2 cells”. The “transcriptional activation of PUMA and NOXA” value in test [6] (CL48 and HepG2 cells) is “marked transcriptional activation of PUMA and NOXA at 8 hours after treatment”; in test [6] (Hep3B cells and HeLa cells), “modest induction if any”. Moreover, in test [7] (72 hours), the “sensitivity to growth inhibition, HS578T versus HCC1419 and CHO” value is on record as “HS578T cells were substantially more sensitive to Dox-mediated growth inhibition than the other two cell types”. In addition, in test [7] (72 hours after treatment), the cell viability entry is recorded as “decreased cell viability in a dose-dependent manner in all three cell types”.
